According to patent US20250044279A1, “CYTOTOXICITY ASSAY FOR DETECTING CELLULAR DAMAGE” (priority 2023, published 2025):

Legend:
C. albicans (SC5314) = assay: Infection of TR146-Nluc epithelial cells with C. albicans in the presence of antifungals; damage read out by Nluc and LDH in supernatant; format: cell-based; conditions: sub-MIC levels, supernatant 24 hours after infection; for protection of TR146-Nluc from C. albicans-induced cell damage, LDH assay: LDH readout, protective effect not reliably detected (FIG. 3D); for protection of TR146-Nluc from C. albicans-induced cell damage, Nluc assay: Nluc readout (FIG. 3D)
Procedure: (§1) In order to measure damage from cells seeded in 96-well plates, plates were centrifuged at 250×g for 10 minutes. Where indicated, 100 μl of supernatant was collected and stored at −20° C. for assaying on another day in the same week. For the luciferase assays, 5 μl supernatant was diluted with 95 μl PBS in white flat-opaque-bottomed 96-well plates (ThermoFisher). Then, 100 μl of 10 μM coelenterazine (in PBS) was added and luciferase activity measured immediately using a Tecan infinite M200 luminescence reader, with integration time of 100 ms and OD2 compensation. The OD2 neutral density filter attenuates high level light by a factor of 100.
The LDH cytotoxicity assay was performed according to instructions in the Roche Cytotoxicity Detection Kit with minor modifications. Briefly, 10 μl supernatant was diluted with 90 μl PBS in transparent-flat-bottomed 96-well plates, 100 μl of kit reagent mixture was added to each well, the plates were incubated in the dark for 15-20 minutes at room temperatures, and absorbance was measured with a Tecan absorbance reader at 492 nm (reference at 600 nm).
Infection of epithelial cells with Candida spp. strains Overnight cultures of Candida spp. strains in YPD, 1% peptone were diluted, washed in PBS, and counted using Neubauer counting chambers. The medium of confluent epithelial cells was replaced with a suspension of […] Candida spp. (MOI 1) in the appropriate cell culture medium (without FBS). The cells were incubated at 37° C. and 5% CO2 for 24 hours.
Stock solutions of the antifungal drugs, fluconazole (10 mg/ml) and voriconazole (10 mg/ml) were prepared in DMSO and stored at −20° C. A two-fold dilution series was prepared in DMEM/F12 cell culture medium for fluconazole (8-0.25 μg/ml) and voriconazole ([…]). Diluted drugs were transferred to TR146-Nluc cells seeded 48 hours prior, and infected with C. albicans (SC5314), as described above. Supernatant was collected 24 hours after infection to measure damage by LDH and Nluc.

Nluc = target: T1, Nluc (Oplophorus gracilirostris, UniProt Q9GV45, A31E/A60N/A81I/F95D/I117V/K70R/L54V/L99Q/M102K/N193R/P142E/Q151K/Q38R/Q45L/V71I/Y165I); assay: Effect of pyruvate on Nluc enzyme activity in TR146-Nluc cell lysate; format: biochemical; conditions: 16-0.5 mM dilution series (FIG. 4C)
T1 construct: expressed in transfected cells; host or cells: TR146 human oral epithelial cells, lentivirally transduced with pSEW-NanoLuc-IRES-PuroR (Nluc gene amplified from Addgene plasmid #67178), lysed in 1% Triton X-100 in PBS
T1 sequence (Q9GV45 other isoform, or with tags, fused parts or gaps with the stated changes): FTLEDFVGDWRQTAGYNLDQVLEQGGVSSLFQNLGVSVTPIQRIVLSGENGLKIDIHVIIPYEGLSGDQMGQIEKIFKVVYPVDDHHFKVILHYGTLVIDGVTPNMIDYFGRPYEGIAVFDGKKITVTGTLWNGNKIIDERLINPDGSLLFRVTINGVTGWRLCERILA
Procedure: as §1
TR14-Nluc cells were detached with Accutase and resuspended in 5 ml PBS. Cells were counted and ≈1×10^4 cells/ml were resuspended in lysing buffer (1% Triton X-100 in PBS, pH 7.4).
To examine the effects of pyruvate on activity of LDH, a 2-fold dilution series for sodium pyruvate and lactate (16-0.5 mM) was prepared in lysis buffer, the lysate was incubated for 10 min at 37° C. and centrifuged at 10,000×g. The supernatant was collected to test LDH and luciferase enzyme activity.

Row | Structure (SMILES) | protection of TR146-Nluc from C. albicans-induced cell damage, LDH assay (C. albicans (SC5314)) | protection of TR146-Nluc from C. albicans-induced cell damage, Nluc assay (C. albicans (SC5314)) | effect on Nluc enzyme activity (Nluc)
1 | OC(Cn1cncn1)(Cn1cncn1)c1ccc(F)cc1F [fluconazole] | not with LDH | protective effect | 
2 | CC(=O)C(=O)[O-].[Na+] [pyruvate, sodium pyruvate] |  |  | no discernible effect
3 | C[C@@H](c1ncncc1F)[C@](O)(Cn1cncn1)c1ccc(F)cc1F [voriconazole] | not with LDH | protective effect | 
